“And” between values parts separate entries of the source, which are not always exact repeats. Equal values may be shown once. “Also recorded” adds a separate entry of the source.
Tests used:
monomeric Aβ = biological target: T1, monomeric Aβ (Homo sapiens, UniProt P05067); assay: Sedimentation equilibrium of unsedimented monomeric species, monitored at 330 nm; type: binding
T1 construct: Amyloid-β (Aβ 1-40) was purchased from California Peptides (Lot # SF104); purchased California Peptides Lot # SF104
T1 sequence (P05067 672-711): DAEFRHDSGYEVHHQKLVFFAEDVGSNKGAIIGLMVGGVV
Protocol: Sedimentation equilibrium runs were performed on AD (100 μM) samples in the absence and presence of inhibitors (150 μL) at pH 7.4 at a rotor speed of 3,000-20,000 rpm using a double sector cell with charcoal-filled epon centerpieces and sapphire windows. All scans were performed at 280 nm or at 330 nm (for solutions containing apomorphine or apomorphine analogues) with a step size of 0.001 cm and 25 averaged scans. Samples were allowed to equilibrate for 24-30 h, and duplicate scans 3 h apart were overlaid to determine that equilibrium had been reached. The data were analyzed by a nonlinear least squares analysis using the Origin software provided by Beckman.
Analytical ultracentrifugation methods were also employed to probe the mechanism of interaction of these molecules with Aβ. […] To investigate whether apomorphine binds to monomeric Aβ, we carried out a sedimentation equilibrium experiment on the remaining monomeric species by monitoring at 330 nm, where apomorphine is the sole contributor to the absorbance at this wavelength.

Aβ 1-40 [1] = biological target: T2, Aβ 1-40 (Homo sapiens, UniProt P05067); assay: Thioflavin T (ThT) fluorescence assay for fibril formation; type: biochemical; design: Amyloid-β (Aβ 1-40) was purchased from California Peptides (Lot # SF104); purchased California Peptides Lot # SF104
T2 sequence (P05067 672-711): as above
Protocol: Preparation of Stock Peptide Solutions for Fibrillization Studies. Stock solutions of the inhibitors were prepared by dissolving the compounds at a concentration of 5-7 mM in water or in 1-1.5% DMSO solutions (for compounds with reduced solubility). Amyloid-β (Aβ 1-40) was purchased from California Peptides (Lot # SF104). Aβ 1-40 stock solutions were prepared by dissolving purified and lyophilized peptide in cold double distilled water to yield stock solutions at a concentration of 2 mg/mL. The stock solutions were used within 10-30 minutes of dissolution. Samples for fibril formation assay were prepared by diluting the appropriate amount of Aβ stock with pH 7.4 Tris-HCl buffer (50 mM Tris, 150 mM NaCl) to afford a final peptide concentration of 100 μM. […] Analytical ultracentrifugation, and electron microscopy were periodically used to ensure that we start our experiments with a hydrodynamically defined Aβ monomer, and the absence of any preformed fibrils in solution.
Thioflavin T (ThT) Fluorescence Assay for Fibril Formation. Thioflavin T was purchased from Aldrich (70% purity) and was recrystallized from benzene/ethanol (1:1) to afford yellow crystals (36). Thioflavin T binding assays were performed by addition of 50 μL of 100 μM Aβ solutions, which were incubated at 37° C. in the absence and presence of inhibitors, to 450 μL solution of 10 μM Thioflavin T in phosphate buffer (10 mM phosphate, 100 mM KCl). The solutions were mixed and fluorescence measurements were recorded in Biosystems model spectrofluorimeter at 25° C. using a 1 cm path length quartz cell. An excitation slit width of 4 nm and an emission slit width of 8 nm were employed. The excitation wavelength was set to 450 nm and emission monitored from 460-630 nm. The relative fluorescence at 482 nm was plotted for each sample, and was used as a measure of the amount of fibrillar aggregates in solution.

Aβ 1-40 [2] = biological target: T2, Aβ 1-40; assay: Sedimentation velocity of Aβ quaternary structures in the presence of inhibitors; type: biochemical; design: Amyloid-β (Aβ 1-40) was purchased from California Peptides (Lot # SF104); purchased California Peptides Lot # SF104; details: for Average sedimentation coefficients of two populations of oligomeric species: apomorphine 50 μM
Protocol: Probing the Mechanism of Amyloid Fibril Formation Inhibition using Sedimentation Velocity Experiments. To probe the mechanism by which apomorphine and its structural analogues inhibit Aβ fibril formation, sedimentation velocity was used to determine the distribution and molecular size of quaternary structures of Aβ in the presence and absence of inhibitors. Aβ samples (100 μM) in a pH 7.4 buffer (50 mM Tris-HCl, 150 mM NaCl) were incubated at 37° C. for 1-10 days in the presence and absence of inhibitors, then transferred to 25° C. for 1-3 hours before the sedimentation experiments were carried out at 20° C. The sedimentation properties of Aβ 1-40 in the absence and presence of inhibitors were obtained from data collected on a temperature controlled Beckman XL-1 using 400-420 μL of peptide solutions and data were recorded at rotor speeds of 3,000-30,000 rpm in continuous mode with a step size of 0.005 cm. The sedimentation velocity absorbance profiles were then analyzed using the time derivative (dc/dt) analysis program, which was provided by J. Philo, to obtain the sedimentation coefficient distribution g(*s) for all the quaternary structures in solution as described previously (37, 38).
Fitting of the g(*s) profiles allows for the determination of the sedimentation coefficient (peak position, with a unit of Svedberg, 1 S=10^−13 s) and the diffusion coefficient (from the peak width, with a unit of Fick, 1 F=[…]). This method has the advantage of allowing for the calculation of the molecular weight of the sedimenting species using equation II since s and D can be obtained from the fitting analysis. [formula]
In the cases where the diffusion coefficient cannot be determined accurately, the molecular weight of a spherical protein can still be estimated by combining the Svedberg equation and Stokes equation for the frictional coefficient to obtain equation III which utilizes the estimated sedimentation coefficient: [formula]
Sedimentation velocity was also used to determine the amount of soluble Aβ and Aβ monomer in solution after sedimentation of Aβ aggregates. […] The percent of monomeric species in solution was calculated using equation IV at 50,000 rpm and after complete sedimentation of Aβ high MW oligomeric species. Sedimentation equilibrium studies of the unsedimented species were carried out to determine whether a monomer, dimer or a mixture was present in solution. % of unsedimented Aβ=1−(Absorbance(290 nm, 3000 rpm)−Absorbance(290 nm, 20,000-30,000 rpm))×100 (IV)

Aβ 1-40 [3] = biological target: T2, Aβ 1-40; assay: Electron microscopy of Aβ aggregates in the presence of inhibitor; type: biochemical; design: Amyloid-β (Aβ 1-40) was purchased from California Peptides (Lot # SF104); purchased California Peptides Lot # SF104
Protocol: Electron Microscopy. Electron microscopy was used to follow the changes in size and structural morphology of Aβ aggregates in the presence and absence of inhibitor at 37° C. as a function of time. EM samples were prepared by placing 5 μL of the Aβ solution on a carbon-coated grid and allowing the solution to stand for 2 min before removing excess solution. The grid was then washed once with distilled water and once with 1% uranyl acetate before staining the sample with fresh 1% uranyl acetate for another 2 min. The samples were then studied in a Phillips CM-100 electron microscope. The grids were thoroughly examined to get an overall statistical evaluation of the structures present in the sample. All electron micrographs were taken at 100 kV.

Aβ 1-40 [4] = biological target: T2, Aβ 1-40; assay: Congo red binding studies; type: biochemical; design: Amyloid-β (Aβ 1-40) was purchased from California Peptides (Lot # SF104); purchased California Peptides Lot # SF104; details: Aβ solutions containing apomorphine, 3 days at 37° C.
Protocol: Congo Red Binding Studies. […] The concentration of the Congo red stock was determined by measuring the absorbance of a diluted aliquot at 477 nm (ε477 nm=34,722 cm^−1M^−1) (35). Buffered Congo red solutions at the desired concentration were prepared by dilution of an aliquot of the stock solution in 50 mM Tris-HCl, 150 mM NaCl (pH 7.4). Binding studies were carried out by diluting 10 μL of a 100 μM Aβ solutions to 90 μL of 10 μM Congo red buffered solution. The resulting solutions were then vortexed and the UV-Vis spectra (300-700 nm) was collected immediately using a Beckman UV/VIS spectrophotometer in a mini cuvette with a 1 cm pathlength.

Aβ 1-40 [5] = biological target: T2, Aβ 1-40; assay: Visible sedimentable aggregates in Aβ 1-40 fibrillization samples; design: Amyloid-β (Aβ 1-40) was purchased from California Peptides (Lot # SF104); purchased California Peptides Lot # SF104; details: Aβ 1-40 100 μM, apomorphine 100 μM, 37° C., 1-3 days
Protocol: Solutions of Aβ 1-40 (50-100 μM) were incubated at 37° C. for 1-3 days in the absence and presence of apomorphine at equimolar concentration.

CN1CCc2cccc3c2C1Cc1ccc(O)c(O)c1-3 (single isomer, unassigned; (-)) [apomorphine, (−)-10,11-dihydroxyaporphine]
Molecular weight from single species fit of sedimentation equilibrium (monomeric Aβ; remaining monomeric species, monitored at 330 nm): 4,430 g/mol | Binding to monomeric Aβ (monomeric Aβ; sedimentation equilibrium at 330 nm): bound to monomeric Aβ | Thioflavin T fluorescence at 482 nm (amount of fibrils) (Aβ 1-40 [1]; Aβ 1-40 100 μM incubated with compound, pH 7.4, 37° C., 3 days): did not exhibit this typical fluorescence; also recorded: did not affect the ThT fluorescence spectra; also recorded: signal near background | Thioflavin T signal after longer incubation (Aβ 1-40 [1]; longer incubation at 37° C., some long fibrils formed): did not exhibit any changes | Thioflavin T signal with sodium metabisulphite added (Aβ 1-40 [1]; stock solutions containing 1% (v/v) sodium metabisulphite, 37° C., pH 7.4, 3 days): restoration of the ThT signal | Amount of nonfibrillar assemblies (protofibrils) formed by Aβ alone relative to that obtained in the presence of compound (Aβ 1-40 [2]; 20 hour incubation): ~30% | Average sedimentation coefficients of two populations of oligomeric species (Aβ 1-40 [2]; Aβ 100 μM): 35 S and 56 S | Average sedimentation coefficients of two populations of oligomeric species (Aβ 1-40 [2]; Aβ 100 μM, listed as apomorhine): 35 S and 56 S | Average sedimentation coefficient of Aβ-apomorphine complex(s) (Aβ 1-40 [2]; Aβ 100 μM, apomorphine 100 μM, 3 days, 30,000 rpm): 50 S | Sedimentation of Aβ 1-40 at 3,000 rpm (fibrils) (Aβ 1-40 [2]; apomorphine at equimolar ratio to Aβ 1-40): no sedimentation of Aβ 1-40 was observed | Increase in amount of soluble protofibrils (Aβ 1-40 [2]; incubation 17-24 h at 37° C., in the presence of apomorphine): 60% | Sedimentation coefficient after addition of apomorphine (Aβ 1-40 [2]; incubation 17-24 h at 37° C., Aβ alone 20 S): 30 S | Species seen by electron microscopy (Aβ 1-40 [3]; Aβ 1-40 100 μM, apomorphine 50 μM): both long unbranched fibrils and short nonfibrillar assemblies were observed | Nonfibrillar assemblies as share of species in solution (Aβ 1-40 [3]; Aβ 1-40 100 μM, apomorphine 50 μM, 3-6 days at 37° C.): 70-85% | Species seen by electron microscopy (Aβ 1-40 [3]; Aβ 1-40 100 μM, apomorphine 100 μM): accumulation of predominantly soluble, nonfibrillar assemblies | Species by sedimentation velocity and EM (Aβ 1-40 [3]; Aβ 1-40 100 μM, apomorphine 200 μM, 37° C., 2-6 days): stabilization of soluble oligomeric species | Fibril formation at apomorphine concentrations below 50 μM (Aβ 1-40 [3]; Aβ 1-40 100 μM, apomorphine <50 μM, 3-9 days at 37° C.): significant fibrils were formed; also recorded: not effective as an inhibitor | Protofibril assembly into fibrils when compound is added to pre-incubated Aβ (EM and sedimentation velocity) (Aβ 1-40 [3]; Aβ pre-incubated 18-20 hr at 37° C., then three to nine days with compound): exhibited similar behavior | Inhibition of Aβ fibril formation by EM, aged or freshly prepared stock solutions (Aβ 1-40 [3]; three to four days at 37° C.): effective inhibition of Aβ fibril formation | Congo red maximal absorbance and red-shifted maximum (Aβ 1-40 [4]): no increase in the maximal absorbance and red-shifted maximum | Visible sedimentable aggregates (Aβ 1-40 [5]): did not show any visible sedimentable aggregates
